# Data as given in PMC11947346, “Synthesis and preclinical evaluation of gastrin releasing peptide receptor antagonist [^18F]MeTz-PEG2-RM26 for positron emission tomography” (EJNMMI Radiopharmacy and Chemistry, 2025).
# Legend:
# [1] = target: T1, GRPR-expressing PC-3 cells (Homo sapiens, UniProt P30550); experiment: In vitro binding to GRPR with and without preblocking of GRPR; assay type: cell-based; details: 8–10 nM radioligand, 1 h at 37 °C, preblocking with 1 µM NOTA-PEG2-RM26 for 10 min at rt, n = 3, P < 0.0001
# T1 construct: investigated using GRPR-expressing PC-3 cells; endogenous in cells; host or cells: PC-3 cells
# T1 sequence (P30550 whole entry): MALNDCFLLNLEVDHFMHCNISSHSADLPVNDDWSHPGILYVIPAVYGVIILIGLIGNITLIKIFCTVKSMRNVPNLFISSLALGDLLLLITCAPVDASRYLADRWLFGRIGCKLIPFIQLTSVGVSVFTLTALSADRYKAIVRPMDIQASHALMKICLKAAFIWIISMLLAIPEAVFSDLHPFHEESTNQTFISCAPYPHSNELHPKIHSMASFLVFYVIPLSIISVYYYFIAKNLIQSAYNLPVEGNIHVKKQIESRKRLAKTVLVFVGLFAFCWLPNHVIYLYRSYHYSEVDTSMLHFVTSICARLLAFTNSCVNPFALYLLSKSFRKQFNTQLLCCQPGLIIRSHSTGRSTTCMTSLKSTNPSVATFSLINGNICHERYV
# Method: PC-3 cells (1 × 10^6 cells/well) were seeded on 6-well dishes one day before the experiment. On the day of the experiment, a set of wells was incubated with 1 µM/well of NOTA-PEG2-RM26 for 10 min at rt to block GRPR. After incubation, 8–10 nM (1.2–17.5 kBq) of [^18F]MeTz-PEG2-RM26 (8a) was added to the pretreated and non-treated wells, and the cells were incubated for 1 h at 37 °C. Thereafter, cells were detached using trypsin-EDTA (ethylenediaminetetraacetic acid), collected, and measured for their radioactivity content. The internalisation assay was done after 1 h of incubation as previously described (Varasteh et al. [2013b]).
# in vivo = details: mouse, total radioactivity; for tissue uptake at 1 h / tissue uptake at 2 h / tissue to tissue ratio at 1 h / tissue to tissue ratio at 2 h: Balb/c nu/nu, 48 pmol; for tissue uptake dose at 0.5 h / tissue uptake at 0.5 h: NMRI; for tissue uptake at 0.5 h: NMRI mice, 30 min pi
# Method: (§1) [^18F]MeTz-PEG2-RM26 (8a) (30 kBq, 40 pmol) was evaluated in NMRI mice to assess the biodistribution in normal organs. A group of NMRI mice (n = 3) was additionally co-injected with 5 nmol of NOTA-PEG2-RM26 to block GRPR. Mice were euthanised at 30 min post-injection (pi) and the organs of interest were collected, weighed, and measured for their radioactivity content. Further, Balb/c nu/nu mice (4 mice in each group) were used to evaluate the uptake in normal organs and the GRPR-expressing tumour model (PC-3). In short, 7 × 10^6 freshly harvested PC-3 cells were suspended in 100 µl sterile PBS and were implanted subcutaneously at the right hind leg of each mouse. […] [^18F]MeTz-PEG2-RM26 (8a) (120 kBq, 48 pmol) was injected and mice were euthanised at predetermined time points of 1 and 2 h pi. An additional group was co-injected with 5 nmol of NOTA-PEG2-RM26 to block GRPR and was euthanized at 2 h pi. The collected organs were weighed and the radioactivity content was measured in each organ.
# NMRI mice = experiment: in vivo
# Method: as §1
# [2] = test system: GRPR-expressing PC-3 xenografts; experiment: in vivo; details: PC-3 xenografted Balb/c nu/nu mice, 2 h pi, blocked: co-injected with 5 nmol NOTA-PEG2-RM26, mean ± SD, n = 4
# Method: as §1
# [3] = Method: [^18F]MeTz-TCO-PEG2-RM26 (8a) (330 pmol, 1.2 MBq) was added and the tube was vortexed for 2 min. The tube was centrifuged for 20 s to separate the phases. Fractions of each phase were collected and the radioactivity content was measured.
# GRPR = target: T2, GRPR (Homo sapiens, UniProt P30550); experiment: In vitro competitive binding assay against [^125I]I-Tyr^4-BBN; IC50 determination; details: PC-3 cells
# T2 construct: investigated using GRPR-expressing PC-3 cells; endogenous in cells; host or cells: PC-3 cells
# T2 sequence (P30550 whole entry): as above
# Method: The half maximal inhibitory concentration (IC50) was determined for F-MeTz-PEG2-RM2 (8b), Ga-loaded NOTA-PEG2-RM26 (Varasteh et al. [2013b], [2015]) conjugate was used as a comparator. […] Briefly, 10^5 cells were incubated the day before. […] After incubation, the cells were collected, and their activity was measured.
# [4] = NMRI mice, 30 min pi, 40 pmol (30 kBq), non-blocked, mean ± SD, n = 3–4
structure (smiles),measurement,setting,value
CC1=NNC(c2ccc(CNC(=O)c3ccc(F)nc3)cc2)=C2CCC[C@H](OC(=O)NCCOCCOCCC(=O)N[C@H](Cc3ccccc3)C(=O)N[C@@H](CCC(N)=O)C(=O)N[C@@H](Cc3c[nH]c4ccccc34)C(=O)N[C@@H](C)C(=O)N[C@H](C(=O)NCC(=O)N[C@@H](Cc3c[nH]cn3)C(=O)N[C@@H](CC(C)C)[C@@H](O)CC(=O)N[C@@H](CC(C)C)C(N)=O)C(C)C)CCC12 (stereo partly drawn) [8a],activity uptake upon target saturation (GRPR specificity),[1],statistically significant reduction of activity uptake upon target saturation
same,tissue uptake at 1 h,in vivo; blood,2.5 ± 0.4 %ID/g
same,tissue uptake at 2 h,in vivo; blood,1.8 ± 0.6 %ID/g
same,tissue uptake at 1 h,in vivo; bone,0.8 ± 0.2 %ID/g
same,tissue uptake at 2 h,in vivo; bone,0.6 ± 0.04 %ID/g
same,tissue uptake at 1 h,in vivo; kidneys,2.4 ± 0.1 %ID/g
same,tissue uptake at 2 h,in vivo; kidneys,1.9 ± 0.7 %ID/g
same,tissue uptake at 1 h,in vivo; liver,12 ± 2 %ID/g
same,tissue uptake at 2 h,in vivo; liver,7 ± 2 %ID/g
same,tissue uptake at 1 h,in vivo; lungs,1.3 ± 0.1 %ID/g
same,tissue uptake at 2 h,in vivo; lungs,1.5 ± 0.8 %ID/g
same,tissue uptake at 1 h,in vivo; muscle,0.33 ± 0.04 %ID/g
same,tissue uptake at 2 h,in vivo; muscle,0.3 ± 0.1 %ID/g
same,tissue uptake at 1 h,in vivo; pancreas,16 ± 1 %ID/g
same,tissue uptake at 2 h,in vivo; pancreas,17 ± 4 %ID/g
same,tissue uptake at 1 h,in vivo; small intestine,6 ± 3 %ID/g
same,tissue uptake at 2 h,in vivo; small intestine,4 ± 3 %ID/g
same,tissue uptake at 1 h,in vivo; spleen,0.9 ± 0.2 %ID/g
same,tissue uptake at 2 h,in vivo; spleen,0.8 ± 0.6 %ID/g
same,tissue uptake at 1 h,in vivo; tumour (PC-3 xenograft),2.4 ± 0.1 %ID/g
same,tissue uptake at 2 h,in vivo; tumour (PC-3 xenograft),2.7 ± 0.5 %ID/g
same,tissue to tissue ratio at 1 h,in vivo; tumour / blood,0.97 ± 0.1
same,tissue to tissue ratio at 2 h,in vivo; tumour / blood,1.5 ± 0.2
same,tissue to tissue ratio at 1 h,in vivo; tumour / bone,3.2 ± 0.5
same,tissue to tissue ratio at 2 h,in vivo; tumour / bone,5 ± 1
same,tissue to tissue ratio at 1 h,in vivo; tumour / kidneys,0.99 ± 0.08
same,tissue to tissue ratio at 2 h,in vivo; tumour / kidneys,1.6 ± 0.6
same,tissue to tissue ratio at 1 h,in vivo; tumour / liver,0.2 ± 0.02
same,tissue to tissue ratio at 2 h,in vivo; tumour / liver,0.4 ± 0.1
same,tissue to tissue ratio at 1 h,in vivo; tumour / lungs,1.9 ± 0.1
same,tissue to tissue ratio at 2 h,in vivo; tumour / lungs,2.2 ± 1
same,tissue to tissue ratio at 1 h,in vivo; tumour / muscle,7.4 ± 0.7
same,tissue to tissue ratio at 2 h,in vivo; tumour / muscle,12 ± 4
same,tissue to tissue ratio at 1 h,in vivo; tumour / pancreas,0.15 ± 0.02
same,tissue to tissue ratio at 2 h,in vivo; tumour / pancreas,0.17 ± 0.05
same,tissue to tissue ratio at 1 h,in vivo; tumour / small intestine,0.5 ± 0.2
same,tissue to tissue ratio at 2 h,in vivo; tumour / small intestine,0.7 ± 0.3
same,tissue to tissue ratio at 1 h,in vivo; tumour / spleen,2.6 ± 0.5
same,tissue to tissue ratio at 2 h,in vivo; tumour / spleen,4 ± 2
same,tissue uptake at 1 h,in vivo; tumour,2.4 ± 0.1 %ID/g
same,tissue uptake dose at 0.5 h,"in vivo; GI tract with content (whole intestine), 40 pmol",38 ± 4 %ID
same,tissue uptake dose at 0.5 h,in vivo; GI tract with content,32 ± 4 %ID
same,tissue uptake at 0.5 h,"in vivo; blood, 40 pmol, activity uptake in blood, 40 pmol (30 kBq), non-blocked, mean ± SD, n = 3–4",5 ± 1 %ID/g
same,tissue uptake at 0.5 h,"in vivo; blood, activity uptake in blood, 40 pmol, blocked: co-injected with 5 nmol NOTA-PEG2-RM26, mean ± SD, n = 3",4 ± 1 %ID/g
same,tissue uptake at 0.5 h,"in vivo; bone, 40 pmol, activity uptake in bone, 40 pmol (30 kBq), non-blocked, mean ± SD, n = 3–4",0.8 ± 0.1 %ID/g
same,tissue uptake at 0.5 h,"in vivo; bone, activity uptake in bone, 40 pmol, blocked: co-injected with 5 nmol NOTA-PEG2-RM26, mean ± SD, n = 3",0.7 ± 0.1 %ID/g
same,tissue uptake at 0.5 h,"in vivo; kidneys, activity uptake in kidneys, 40 pmol, blocked: co-injected with 5 nmol NOTA-PEG2-RM26, mean ± SD, n = 3",3.1 ± 0.6 %ID/g
same,tissue uptake at 0.5 h,"in vivo; liver, 40 pmol, activity uptake in liver, 40 pmol (30 kBq), non-blocked, mean ± SD, n = 3–4",12 ± 0.7 %ID/g
same,tissue uptake at 0.5 h,"in vivo; liver, activity uptake in liver, 40 pmol, blocked: co-injected with 5 nmol NOTA-PEG2-RM26, mean ± SD, n = 3",12 ± 2 %ID/g
same,tissue uptake dose at 0.5 h,"in vivo; rest of the carcass, 40 pmol",15 ± 2 %ID
same,tissue uptake dose at 0.5 h,in vivo; rest of the carcass,16 ± 4 %ID
same,tissue uptake at 0.5 h,"in vivo; spleen, 40 pmol, activity uptake in spleen, 40 pmol (30 kBq), non-blocked, mean ± SD, n = 3–4",1.4 ± 0.1 %ID/g
same,tissue uptake at 0.5 h,"in vivo; spleen, activity uptake in spleen, 40 pmol, blocked: co-injected with 5 nmol NOTA-PEG2-RM26, mean ± SD, n = 3",0.9 ± 0.2 %ID/g
same,tissue uptake dose at 0.5 h,"in vivo; whole body, 40 pmol",84 ± 7 %ID
same,activity uptake in bone,NMRI mice; [4],0.8 ± 0.1 %IA/g
same,activity uptake in liver,NMRI mice; [4],12.0 ± 0.7 %IA/g
same,in vivo defluorination (stability of the fluorine-carbon bond),NMRI mice; judged from bone uptake in the biological evaluation in mice,no significant signs of in vivo defluorination
same,activity uptake in pancreas,[2],4 ± 1 %IA/g
same,logP,[3],1.6 ± 0.2
CC1=NNC(c2ccc(CNC(=O)c3ccc(F)nc3)cc2)=C2CCC[C@H](OC(=O)NCCOCCOCCC(=O)N[C@H](Cc3ccccc3)C(=O)N[C@@H](CCC(N)=O)C(=O)N[C@@H](Cc3c[nH]c4ccccc34)C(=O)N[C@@H](C)C(=O)N[C@H](C(=O)NCC(=O)N[C@@H](Cc3c[nH]cn3)C(=O)N[C@@H](CC(C)C)[C@@H](O)CC(=O)N[C@@H](CC(C)C)C(N)=O)C(C)C)CCC12 (stereo partly drawn) [8b],decrease in binding affinity versus Ga-NOTA-PEG2-RM26 (IC50 ratio),GRPR,6.8 fold
